Source: a melting point compilation (Tetko et al.; mined from patent text by program, amines drawn as free bases though some values may be those of a salt)

Point of comparison: CC(=C1SCCCS1)c1ccc(Oc2ccc(S(C)=O)cc2)cc1 (stereo not drawn), melting point 132 °C. Against it:
- CN1CCC(Oc2cc(Cl)ccc2C(N)=O)C1 (stereo not drawn) — lower, 122 to 123 °C
- COC(=O)[C@@]1(C)Oc2ccccc2N(C)C1=O — lower, 76 to 78 °C
- CS(=O)(=O)[C@H]1CN(Cc2ccccc2)C[C@@H]1S(C)(=O)=O — lower, 56.5 °C
- CCCCCCc1ccc(N2C=CC(=C=C3C(C#N)C(=C(C#N)C#N)OC3(C)C)C=C2)cc1 (stereo not drawn) — higher, 193 °C
- O=C1CCCCCN1C(=O)N1CCCCCC1=O — lower, 115 °C
- N#Cc1cccc(C(=O)Nc2ccccc2N)c1 — higher, 197 to 200 °C
- Cc1ccc(S(=O)(=O)OCC2Cc3cccc(-c4cccc(C(F)(F)F)c4)c3O2)cc1 (stereo not drawn) — lower, 90 to 93 °C
- COc1ccc(OCc2ccccc2)cc1N — lower, 81 °C
- O=C(c1ccccc1O)N1CC2CCC(C1)O2 — higher, 155 to 157 °C
- O=c1cc(CO)oc(-c2ccccc2)c1O — higher, 151 to 154 °C
- O=C1c2ccccc2C(=O)c2c(Nc3ccc(O)cc3)ccc(Nc3ccc(O)cc3)c21 — higher, 340 to 342 °C
- CCCn1c(=S)[nH]c2ccc(I)cc2c1=O — higher, > 200 °C
- CCC(C)(C)NC(Nc1cc(Cl)cc(Cl)c1)=C(C#N)S(=O)(=O)c1ccc(Cl)cc1 — higher, 189 to 192 °C
- CCOC(=O)CSc1nc(Cl)cc(Nc2ccc(OC)cc2)n1 — lower, 96 to 97.5 °C
- CC(Cl)C(=O)c1ccc2c(c1)CC(=O)N2 (stereo not drawn) — higher, 157 to 158 °C
- O=C(NCCN1CCCCC1)c1ccc(-c2ccc3nnn(Cc4ccc5ncccc5c4)c3n2)cc1 — lower, 104 to 107 °C
- COc1ccc(C(=O)N2C(=O)CCC2CCC(=O)OCc2ccccc2)cc1OCc1ccccc1 (stereo not drawn) — lower, 92 to 95 °C
- Cc1ccc(OC2SCC(O)C(O)C2O)c(-c2ccncc2)n1 (stereo not drawn) — higher, 196 to 200 °C
- COc1cc(-c2csnc2C)cc2oc(=O)c(C)c(C)c12 — higher, 163 to 165 °C
- Cc1cnc(NC(=O)C(C)C)o1 — lower, 109 to 110 °C
- Clc1ccc2c(c1)N(c1ncnc3cc4c(cc13)OCCO4)CC2 — higher, 209 to 211 °C
- Cc1nn(-c2ccc(C(F)(F)F)cn2)cc1CCCOc1cccc(CC(=O)O)c1 — lower, 96 to 97 °C
- CN1CCC(c2c[nH]c3ccc(C(=O)c4ccc(F)cc4)cc23)CC1 — lower, 89 °C
- COc1cccc(C(=O)C(=NN)c2cccc(OC)c2)c1 — lower, 109 to 110 °C
- CC1(C)CCCSc2cc(Br)ccc21 — lower, 81 to 82 °C
- COCC(C)(COC)C(=O)O[C@H]1C[C@H](O)C=C2C=C[C@H](C)[C@H](CC[C@@H]3C[C@@H](O)CC(=O)O3)[C@H]21 — lower, 122 to 123 °C
- COc1cc(OCc2ccncc2)ccc1/C=C/c1cc(/C=C/c2cccc3cc[nH]c23)n[nH]1 — higher, 201 to 206 °C
- CC1(C)Oc2ccc(C#N)cc2C(OC(=O)C2CCCN2S(=O)(=O)c2ccc([N+](=O)[O-])cc2)C1Br (stereo not drawn) — higher, 177 to 180 °C
- CS(=O)(=O)c1ccc(-c2cnn(Cc3ccccc3)c(=O)c2-c2ccc(Cl)c(Cl)c2)cc1 — higher, 161 to 163 °C
- CNc1cccc(-c2ccnc3c(C(=O)c4ccccc4)cnn23)c1 — higher, 134 to 136 °C
- O=c1cc(-c2ccc(O)cc2)oc2ccncc12 — higher, 306 to 308 °C
- CNC(=O)C(Cc1ccc(OC)cc1)NC(=O)C(CC(C)C)C(CC(=O)NCC(N)=O)SC(C)=O (stereo not drawn) — higher, 218 to 219 °C
- O=[N+]([O-])c1cccc(C(Cl)=NN=C(Cl)c2ccc(C(F)(F)F)cc2)c1 — lower, 78 to 80 °C
- CN(C(=O)c1nnc2ccccc2c1O)c1ccc(Cl)cc1 — higher, 249 to 253 °C
- Cc1nc(-n2cnn(Cc3ccc(F)cc3)c2=O)sc1C(=O)NCc1ncco1 — higher, 152 to 153 °C
- CCc1cc(C#N)c(Cl)nc1C — lower, 63 to 64 °C
- Nc1cc(Cl)nc(OCc2cccc3ccccc23)n1 — higher, 160 to 161 °C
- Cc1ccc(C(=O)[C@@H]2[C@@H](C)CCCC2(C)C)cc1Cl — lower, 59 to 60 °C
- Clc1nc(Cl)c2cc(N3CCCCC3)ccc2n1 — lower, 101 to 102 °C
- BrCOc1cccc(OCc2ccccc2)c1 — lower, 70 to 71 °C
- COc1ccc2c3c(c(=O)oc2c1)CN(Cc1ccccc1Cl)CC3 — higher, 137 to 139 °C
- CNC(=O)c1ccccc1Nc1nc(Nc2cc3c(cc2OC)CCOC(=O)N3C)ncc1Br — higher, 251 to 253 °C
- Cc1ccc(C23CCC(Cl)(CC2)CC3)cc1 — lower, 105 °C
- C#CCOc1cc(-c2ncc(C(F)(F)F)cc2Cl)ccc1Cl — lower, 102 to 103 °C
- O=C(O)c1ccc(-c2nc(NCc3ccc4c(c3)OCO4)c3c4c(oc3n2)CCCC4)cc1 — higher, 205 °C
- O=C(O)C(=O)c1cn(Cc2ccc(F)cc2)c2ccc(-c3ccccc3)cc12 — higher, 165 to 166 °C
- CC(=O)NCC1OCC(Cc2ccc(Cl)cc2)CO1 (stereo not drawn) — lower, 95 °C
- N#Cc1cccc(C2C=C(C(F)(F)F)NC3=C2C(=O)CCC3)c1 (stereo not drawn) — higher, 182 to 183 °C
- O=C1CC(=O)C2C3C=CC(CC3)C12 (stereo not drawn) — higher, 264 °C
- Cn1cc(-c2ccccc2)c(=O)c(-c2cccc(OC(F)(F)C(F)F)c2)c1 — lower, 119 to 121 °C
- O=C(O)CCC(O)c1ccc(-c2ccccc2Cl)cc1 (stereo not drawn) — lower, 90 to 95 °C
- CC(C)n1c(C=O)c(-c2ccc(F)cc2)c(-c2ccccc2)c1C(=O)O — higher, 219 to 220 °C
- Nc1ccccc1C=C1c2ccccc2CCc2ccccc21 — higher, 145 °C
- OC(Cn1cncn1)c1ccc(Cl)cc1Cl (stereo not drawn) — lower, 87 °C
- COC(=O)Cn1c(C)ccc(NC(=O)OCc2ccccc2)c1=O — lower, 115 to 116 °C
- CC(=O)c1cc2c(c(Cl)c1O)OC(C(O)=NO)C2 (stereo not drawn) — higher, 234 to 235 °C
- O=C(O)CCCSc1ccccc1O — lower, 77 to 78 °C
- O=C(c1ccccc1O)c1cccc2[nH]ccc12 — higher, 165 °C
- O=C1CC2(C(=O)N1)C(=O)N(Cc1ccc(Br)cc1)c1ccccc12 (stereo not drawn) — higher, 218 to 220 °C
- O=C(NC1CC1)c1ccc(-c2ccc3nnn(Cc4ccc5ncccc5c4)c3n2)cc1Cl — higher, 197 to 199 °C
- O=c1[nH]c(-c2ccc(CCN3CCN(c4cccc5ccccc45)CC3)cc2)cs1 — higher, 307 to 309 °C
- CC(C)c1cc(C(=O)Nc2ccc(C(=O)O)nc2)sc1C(C)C — higher, 216 to 217 °C
- O=C1N(Cc2cnc(Br)s2)c2ccccc2C12COc1cc3c(cc12)OCO3 (stereo not drawn) — higher, 215 to 217 °C
- COC(Cn1cncn1)(c1ccc(Cl)cc1)C(C)(C)C1CC1 (stereo not drawn) — lower, 87 to 89 °C
- COc1cc(C)c(CCCCCCCCCC(=O)CCCCCC(=O)O)c(O)c1OC — lower, 55 to 57 °C
- CSc1nc(-c2ccncc2)n(-c2ccc(C)cc2)c(=O)c1C#N — higher, > 250 °C
- O=C1c2ccccc2CN1c1ccc2c(c1)OCCO2 — higher, 170 to 176 °C
- CS(=O)(=O)c1nc(Cl)cc(Nc2ccc(C(F)(F)F)cc2)n1 — higher, 184 to 186 °C
- CCNC(=O)c1cccc2[nH][nH]c(=O)c12 — higher, 209 to 210 °C
- CCOC(=O)N1CCN(c2ccc3nc4[nH]c(=O)[nH]c4cc3c2)CC1 — higher, > 300 °C
- C#Cc1ccnc(-c2ccc(-c3cc(C#C)ccn3)c([N+](=O)[O-])c2)c1 — higher, 178 to 180 °C
- CC(C)c1ccc2cc(C(=O)Nc3ccc(OCC(C)(C)C)c(C#N)c3)sc2n1 — higher, 244 to 245 °C
- CCOC(CCP(=O)(OCC)OCC)(C(=O)c1ccccc1)c1ccccc1 (stereo not drawn) — lower, 75 °C
- COc1ccc(CNc2ccc(Cl)cc2C(=O)C(F)(F)F)cc1 — lower, 82 to 84 °C
- N#Cc1ccc(C(Cc2ccc(OC(F)(F)F)cc2)Cn2cncn2)cc1 (stereo not drawn) — lower, 70 °C
- CCOc1nc(OCC)nc(N2CCN(C=O)CC2)n1 — lower, 106 to 108 °C
- CC(C)(C)[Si](OCCOc1ccc(/C=C/C(=O)O)c(Oc2ncc(C(F)(F)F)cc2Cl)c1)(c1ccccc1)c1ccccc1 — higher, 153 °C
- COc1ccc(CC(C)NC(O)Cc2cc3ccccc3o2)cc1 (stereo not drawn) — lower, 75 to 85 °C
- CCC(CC)Nc1c([N+](=O)[O-])cc(CC=NO)c(C(C)C)c1[N+](=O)[O-] — lower, 114 to 115 °C
- COc1ccc2c(c1)C(=O)N(c1cnc3c(ccn3C)c1)C2 — higher, 198 to 199 °C
- O=c1[nH]c(=O)n(Cc2cccc(OCc3csc(-c4ccccc4)n3)c2)o1 — higher, 139 to 140 °C
- CCOC(=NS(=O)(=O)c1ccccc1OC(F)F)OCC — lower, 80 to 81 °C
- CC(Oc1ncn(-c2cccc(Cl)c2)n1)C(N)=O (stereo not drawn) — higher, 143 to 145 °C
- COc1nnc(N)c(=O)n1C — higher, 198 to 199 °C
- CN1C(=O)S/C(=C\c2cn(-c3ccccc3)nc2OCc2ccccc2)C1=O — higher, 226 to 227 °C
- COC1(c2cc(F)cc(OCc3nc(-c4ccc(F)cc4)c(-c4ccc(S(N)(=O)=O)cc4)o3)c2)CCOCC1 — lower, 70 to 72 °C
- CCCOc1ncc(I)cc1-c1nc2c(CC)nn(CCN3CCOCC3)c2c(=O)[nH]1 — higher, 175 to 177 °C
- COc1cc(C)nc(NC(=O)NS(=O)(=O)Cc2ccccc2-c2nnc(SC)o2)n1 — higher, 194 to 196 °C
- CSc1ccc2c(c1)Cc1ccc(C=O)cc1O2 — lower, 122 to 123 °C
- COc1ccc2nc(COc3ccc(CC(SC)C(N)=O)cc3)n(C)c2c1 (stereo not drawn) — higher, 188 to 190 °C
- CCOC(=O)/C=C/c1ccc2c(=O)n(CC(C)C)c(CNC(=O)OC(C)(C)C)c(-c3ccccc3)c2c1 — higher, 147 to 148 °C
- COc1cc(C#N)ccc1OCCCBr — lower, 99 to 101 °C
- CCN(CC)C(=O)c1ccc(C(=C2CCNCC2)c2cccc3ccccc23)cc1 — lower, 80 to 85 °C
- CC(=O)c1cc2sc(C)c(N(C)S(=O)(=O)c3cccs3)c2[nH]1 — higher, 220 °C
- O=C(c1ccc(Nc2ccnc3cc(Cl)ccc23)cc1)N1CCNCC1 — higher, 248 to 250 °C
- N#CC1=C(C2CCNCC2)Nc2n[nH]cc2C1c1cccc(C#N)c1Br (stereo not drawn) — higher, > 270 °C
- CCCCc1nc2c(N)nc3ccccc3c2n1OC — higher, 197 to 199 °C
- CCCCCCCCCCCCCCOc1ccc(CC(=O)Nc2cccc(CBr)c2)cc1 — lower, 116 to 118 °C
- Nc1nc(Cl)c(Cl)nc1[N+](=O)[O-] — higher, 169 to 170 °C
- Cn1c(-c2c(F)cccc2F)nn(-c2ccccc2C(F)(F)F)c1=O — lower, 98 to 99 °C
- COc1cccc(C(C[N+](=O)[O-])SC(=S)N(C)C)c1OC(C)=O (stereo not drawn) — lower, 124 to 126 °C
- Cc1coc(C)c1N(C)c1cc(C(=O)N(C)C)cc2c1nc(C)n2C — higher, 163 to 164 °C
